Results from paper PMC9220410, “Antiamoebic Properties of Laboratory and Clinically Used Drugs against Naegleria fowleri and Balamuthia mandrillaris” (Antibiotics, 2022).
Read-outs that look alike come from different tables or passages of the source.

How the values were obtained:
[1] = system: B. mandrillaris cysts; assay: Excystation assay, B. mandrillaris cysts; assay type: cell-based; details: Balamuthia mandrillaris, read-out: Inhibition of excystation of B. mandrillaris
Method: (§1) Briefly, 5 × 10^5 amoebae cysts (N. fowleri and B. mandrillaris cells) were incubated with 100 μM drugs and/or solvent in 24-well plates containing RPMI-1640 on HeLa monolayers at 37 °C and 5% CO2 until around 75% of the cysts in RPMI-1640 alone have excysted. The RPMI-1640 alone was used as a negative control while DMSO and ethanol were used as a solvent control and 100 μM miltefosine was used as positive control. Live trophozoites (amoebae that excysted) were then quantified by counting live (unstained) cells, after addition of 0.1% Trypan blue to each well, using a haemocytometer. Percentage inhibition is defined as: [(Number of trophozoites in untreated well − Number of trophozoites in treated well)/Number of trophozoites in untreated well)] × 100. The data are representative of the mean ± standard error of several independent experiments performed in duplicate.
(§2) Figure 3 (A) Inhibition of excystation of N. fowleri cysts. N. fowleri cysts were incubated with 100 μM drugs and/or solvent in 24-well plates containing RPMI-1640 on HeLa monolayers for 24 h and number of viable trophozoites were then enumerated. Percentage inhibition of excystation was calculated by: [((RPMI trophozoite cell count − trophozoite cell count for sample)/RPMI trophozoite cell count) × 100)]. The activities of solvents alone were negated from the activities of the compounds. The data is presented as the mean ± standard error (*: p ˂ 0.05, **: p < 0.01, ***: p < 0.001 using student t-test; two tailed distribution). (B) Inhibition of excystation of B. mandrillaris cysts. B. mandrillaris cysts were incubated with 100 μM drugs and/or solvent in 24-well plates containing RPMI-1640 on HeLa monolayers for 24 h and number of viable trophozoites were then enumerated. Percentage inhibition of excystation was calculated by: [((RPMI trophozoite cell count − trophozoite cell count for sample)/RPMI trophozoite cell count) × 100)]. The activities of solvents alone were negated from the activities of the compounds. The data is presented as the mean ± standard error (*: p ˂ 0.05, **: p < 0.01, ***: p < 0.001 using student t-test; two tailed distribution).

[2] = system: N. fowleri trophozoites; assay: Amoebicidal assay against N. fowleri trophozoites (Trypan blue); assay type: cell-based, Naegleria fowleri; details: for EC50 / minimal effective concentration: Naegleria fowleri; for EC50: read-out: Half maximal effective concentration (EC50), N. fowleri; for minimal effective concentration: read-out: Lowest concentration showing significant amoebicidal activity against N. fowleri; for Amoebicidal activity against N. fowleri: summary in discussion, concentration not given
Method: (§3) Amoebicidal assays were performed as previously described. Briefly, 5 × 10^5 amoebae (N. fowleri and B. mandrillaris cells) were incubated with drugs and/or solvents in 24-well plates in RPMI-1640. Amoebae were incubated with RPMI-1640 for negative controls while DMSO and ethanol were used as solvent control. For the positive control, the anti-amoebic drug, 100 μM miltefosine was used. Plates were incubated at 37 °C and 5% CO2 for 24 h. Next, 0.1% Trypan blue was added to each well. […] The number of live cells (i.e., unstained) was counted using a haemocytometer to determine amoebicidal effects of various compounds. The data are representative of the mean ± standard error of several experiments performed in duplicate.
(§4) Figure 1 The amoebicidal activities of compounds against N. fowleri trophozoites. N. fowleri trophozoites were incubated with various concentrations of compounds for 24 h and trophozoites viability was determined using Trypan blue. Percentage amoebicidal activity was calculated by: [((RPMI cell count − cell count for sample)/RPMI cell count) × 100)]. The activities of solvents alone were negated from the activities of the compounds. The data is presented as the mean ± standard error (*: p < 0.05, **: p < 0.01, ***: p < 0.001 using student t-test; two tailed distribution).

[3] = set-up: method as in PMID 29206032, PMID 32548431; details: ref [24],[25],[26]; cited from earlier work
[4] = system: B. mandrillaris trophozoites; assay: Amoebicidal assay against B. mandrillaris trophozoites (Trypan blue); assay type: cell-based, Balamuthia mandrillaris; details: for EC50 / Concentration showing significant amoebicidal activity against B. mandrillaris: 24 h; for EC50: read-out: Half maximal effective concentration (EC50), B. mandrillaris; for Amoebicidal activity against B. mandrillaris: summary in discussion, concentration not given; for Concentration showing significant amoebicidal activity against B. mandrillaris: compared to solvent control
Method: as §3
as §4, with “Figure 2” for “Figure 1”, “against B. mandrillaris” for “against N. fowleri”, “trophozoites. B. mandrillaris” for “trophozoites. N. fowleri”

[5] = system: N. fowleri cysts; assay: Excystation assay, N. fowleri cysts; assay type: cell-based, Naegleria fowleri; details: for inhibition at 100 µM: Naegleria fowleri, read-out: Inhibition of excystation of N. fowleri
Method: as §1, §2

[6] = system: HaCaT cells; assay type: cell-based, human
Method: Cytotoxic effects of the drugs were determined as previously described^21. Briefly, the cytotoxic activity of the drugs was investigated against HaCaT cells. […] The LDH assay protocol is based on an enzymatic reaction, i.e., LDH released from the cell oxidizes lactate to generate NADH, which then reacts with water-soluble tetrazolium salt (WST) to generate a yellow color. The intensity of the generated color correlates directly with the number of lyzed cells. Following this, 1% Triton X-100 was added to the positive control well and incubated the plate for 60 min at 37 °C. For negative control, human cells were grown in RPMI alone well. Then, an equal amount of cells supernatant (comprising LDH enzyme) from each well was combined with equal amount of LDH kit reagents and cytotoxicity was determined in proportion to LDH released from human cells using a spectrophotometer at 490 nm. The percentage LDH released was determined as follows: [(Absorbance of sample − Absorbance of control)/(Absorbance for total LDH release − Absorbance of control)] × 100 = percentage cytotoxicity.
Figure 4 Cytotoxic effects of compounds against human cells are depicted. Various concentrations of compounds were incubated with human cells for 24 h at 37 °C and 5% CO2. RPMI alone was used as negative control and triton X-100 was used as positive control. Data are presented as the mean ± standard error of 2 experiments conducted in duplicates.

[7] = 100 μM, after negating effects of solvent alone
[8] = compared to solvent control, p < 0.05, 24 h
[9] = trophozoites, 24 h, Trypan blue
[10] = Balamuthia mandrillaris, trophozoites, Trypan blue
[11] = LDH release, 24 h, concentration not given

Molecule	inhibition at 100 µM [1, 7]	EC50 ([2]; 24 h)	minimal effective concentration [2, 8]	Amoebicidal activity against N. fowleri [2]	BBB Permeability [3]	EC50 ([4]; Balamuthia mandrillaris)	Amoebicidal activity against B. mandrillaris [4]	inhibition at 100 µM [5, 7]	Concentration showing significant amoebicidal activity against B. mandrillaris [4]	EC50 [2, 9]	EC50 [4, 10]	Cytotoxicity against HaCaT cells [6, 11]	also measured
C[C@H]1O[C@H](O[C@H]2[C@H](O)[C@@H](O)[C@@H](O[C@H]3[C@H](O)[C@@H](O)C(O)O[C@@H]3CO)O[C@@H]2CO)[C@H](O)[C@@H](O)[C@@H]1N[C@H]1C=C(CO)[C@@H](O)[C@H](O)[C@H]1O (stereo partly drawn) [Acarbose, (3R,4R,5S,6R)-5-[(2R,3R,4R,5S,6R)-5-[(2R,3R,4S,5S,6R)-3,4-dihydroxy-6-methyl-5-[[(1S,4R,5S,6S)-4,5,6-trihydroxy-3-(hydroxymethyl)cyclohex-2-en-1-yl]amino]oxan-2-yl]oxy-3,4-dihydroxy-6-(hydroxymethyl)oxan-2-yl]oxy-6-(hydroxymethyl)oxane-2,3,4-triol]	< 10%	3.6 µM	≥ 25 µM	74%	Negative	80.8 µM	60%	17%	–	–	–	–	–
N#Cc1c(Cl)cccc1Cl [Dichlobenil (2,6-DNBT), 2,6-dichlorobenzonitrile]	–	24.2 µM	–	69%	–	39.6 µM	60%	–	25 µM	–	–	–	inhibition at 100 µM [1]: 45%; minimal effective concentration ([2]; 24 h): ≥ 6.25 µM; inhibition at 100 µM [5]: 45%; Cytotoxicity against HaCaT cells ([6]; human, 24 h): 3%
CCC1=C(C)CN(C(=O)NCCc2ccc(S(=O)(=O)NC(=O)NC3CCC(C)CC3)cc2)C1=O (stereo not shown) [Glimepiride, 4-ethyl-3-methyl-N-[2-[4-[(4-methylcyclohexyl)carbamoylsulfamoyl]phenyl]ethyl]-5-oxo-2H-pyrrole-1-carboxamide]	< 10%	–	12.5 µM	92%	Positive	–	54%	53%	–	5.2 µM	63.6 µM	6%	–
Cc1ccc2c(c1)C(Nc1nc(N)nc(C(C)F)n1)C(C)C2 (stereo not shown) [Indaziflam, N-(2,3-dihydro-2,6-dimethyl-1H-inden-1-yl)-6-(1-fluoroethyl)-1,3,5-triazine-2,4-diamine]	–	53.7 µM	–	62%	–	99.8 µM	52%	–	50 µM	–	–	4%	inhibition at 100 µM [1]: 52%; minimal effective concentration ([2]; 24 h): 12.5 µM; inhibition at 100 µM [5]: 68%
OC1C(O)C(O)C(O)C(O)C1O (stereo not shown) [Inositol, cyclohexane-1,2,3,4,5,6-hexol]	–	–	≥ 6.25 µM	–	Present in brain	–	–	12%	6.25 µM	48.9 µM	124 µM	4%	–
CN(C)C(=N)NC(=N)N [Metformin, 1-carbamimidamido-N,N-dimethylmethanimidamide]	–	134 µM	12.5 µM	–	–	–	–	–	–	–	–	–	Inhibition of excystation of N. fowleri [5, 7]: did not inhibit excystation
O=C(O)c1c(Cl)ccc2cc(Cl)cnc12 [Quinclorac, 3,7-Dichloro-8-quinolinecarboxylic acid]	53%	–	≥ 25 µM	–	–	–	–	30%	50 µM	102 µM	297 µM	6%	–
CCNc1nc(Cl)nc(NC(C)(C)C)n1 [Terbuthylazine, 2-N-tert-butyl-6-chloro-4-N-ethyl-1,3,5-triazine-2,4-diamine]	< 10%	–	≥ 3.13 µM	63%	–	–	61%	29%	–	7.5 µM	62.5 µM	2%	–
CN1C(=O)[C@](O)(Cc2cccc(O)c2)N(C)C(=O)[C@@H]1Cc1c[nH]c2cccc([N+](=O)[O-])c12 [Thaxtomin A, (3R,6S)-3-hydroxy-3-[(3-hydroxyphenyl)methyl]-1,4-dimethyl-6-[(4-nitro-1H-indol-3-yl)methyl]piperazine-2,5-dione]	–	94.7 µM	–	–	–	39 µM	–	–	–	–	–	4%	inhibition at 100 µM [1]: < 10%; Lowest concentration showing significant amoebicidal activity against N. fowleri [2, 8]: did not show anti-N. fowleri effects at any concentration tested; inhibition at 100 µM [5]: 22%
O=C(O)/C=C/c1ccccc1 [Trans-cinnamic acid, (E)-3-phenylprop-2-enoic acid]	32%	–	≥ 3.13 µM	–	–	–	–	59%	–	9.4 µM	–	8%	–
N#C[C@@H]1CCCN1C(=O)CNC12CC3CC(CC(O)(C3)C1)C2 [Vildagliptin, (2S)-1-[2-[(3-hydroxy-1-adamantyl)amino]acetyl]pyrrolidine-2-carbonitrile]	14%	–	≥ 3.13 µM	–	Positive	–	–	–	–	100 µM	–	did not exhibit any cytotoxicity	Inhibition of excystation of N. fowleri [5, 7]: did not inhibit excystation
Cellulase	–	–	–	–	–	–	–	–	100 µM	–	–	–	Lowest concentration showing significant amoebicidal activity against N. fowleri [2, 8]: did not show anti-N. fowleri effects at any concentration tested; EC50 ([4]; trophozoites, Trypan blue): 106 µM; Inhibition of excystation of N. fowleri [5, 7]: 39%; Cytotoxicity against HaCaT cells [6]: did not exhibit any cytotoxicity
